The structures appear in SMILES notation.

Sequence of TRKA (P04629 441-796): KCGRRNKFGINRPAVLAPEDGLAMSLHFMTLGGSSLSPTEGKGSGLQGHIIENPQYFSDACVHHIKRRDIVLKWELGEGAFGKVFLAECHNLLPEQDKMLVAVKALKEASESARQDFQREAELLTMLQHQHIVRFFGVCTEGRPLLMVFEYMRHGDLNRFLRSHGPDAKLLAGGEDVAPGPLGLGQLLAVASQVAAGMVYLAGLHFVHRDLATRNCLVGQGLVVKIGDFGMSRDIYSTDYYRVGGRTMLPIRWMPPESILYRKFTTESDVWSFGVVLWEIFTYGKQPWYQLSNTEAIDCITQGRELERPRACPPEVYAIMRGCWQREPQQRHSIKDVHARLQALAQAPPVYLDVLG

This assay has as its target TRKA (Homo sapiens (Human), UniProt P04629). The assay is described as follows: Isolated TRK enzyme assay (HTRF KinEASE-TK), TRKA. In kind it is biochemical. Particulars: read-out: Trka enzyme (IC50).
Usually IC50 stands for the point on the concentration scale where inhibition reaches its midpoint. On to `Cc1ccc2ccc(CC(=O)Nc3cncc(C(=O)c4cn(C(C)C)c5ncncc45)c3)cc2n1` [Example 155, N-{5-[(7-isopropyl-7H-pyrrolo[2,3-d]pyrimidin-5-yl)carbonyl]pyridin-3-yl}-2-(2-methylquinolin-7-yl)acetamide], for which the half-maximal inhibitory concentration (IC50) is 49.1 nM. Regarding `COc1ccc2[nH]c(C)c(CC(=O)Nc3cncc(C(=O)c4cn(C(C)C)c5ncncc45)c3)c2c1` [Example 156, N-{5-[(7-isopropyl-7H-pyrrolo[2,3-d]pyrimidin-5-yl)carbonyl]pyridin-3-yl}-2-(5-methoxy-2-methyl-1H-indol-3-yl)acetamide], the IC50 stood at 133 nM. With `CC(C)n1cc(C(=O)c2cncc(NC(=O)Cc3ccc4nnnn4n3)c2)c2cncnc21` [Example 157, N-{5-[(7-isopropyl-7H-pyrrolo[2,3-d]pyrimidin-5-yl)carbonyl]pyridin-3-yl}-2-tetrazolo[1,5-b]pyridazin-6-ylacetamide], the IC50 was 174 nM.

`CC(C)n1cc(C(=O)c2cncc(NC(=O)Cc3c[nH]c4ccc(O)cc34)c2)c2cncnc21` [Example 158, 2-(5-hydroxy-1H-indol-3-yl)-N-{5-[(7-isopropyl-7H-pyrrolo[2,3-d]pyrimidin-5-yl)carbonyl]pyridin-3-yl}acetamide]: the IC50 turned out to be 230 nM. As to `CC(C)n1cc(C(=O)c2cncc(NC(=O)Cc3c[nH]c4nccnc34)c2)c2cncnc21` [Example 159, N-{5-[(7-isopropyl-7H-pyrrolo[2,3-d]pyrimidin-5-yl)carbonyl]pyridin-3-yl}-2-(5H-pyrrolo[2,3-b]pyrazin-7-yl)acetamide], the IC50 turned out to be 234 nM.

In the case of `Cc1cc2ncn(CC(=O)Nc3cncc(C(=O)c4cn(C(C)C)c5ncncc45)c3)c2cc1C` [Example 160, 2-(5,6-dimethyl-1H-benzimidazol-1-yl)-N-{5-[(7-isopropyl-7H-pyrrolo[2,3-d]pyrimidin-5-yl)carbonyl]pyridin-3-yl}acetamide], the IC50 turned out to be 1080 nM. As for `CC(C)n1cc(C(=O)c2cncc(NC(=O)Cn3cc(-c4ccccn4)nn3)c2)c2cncnc21` [Example 161, N-{5-[(7-isopropyl-7H-pyrrolo[2,3-d]pyrimidin-5-yl)carbonyl]pyridin-3-yl}-2-(4-pyridin-2-yl-1H-1,2,3-triazol-1-yl)acetamide], the IC50 came to 6270 nM.

`Cc1cn(CC(=O)Nc2cncc(C(=O)c3cn(C(C)C)c4ncncc34)c2)nn1` [Example 162, N-{5-[(7-isopropyl-7H-pyrrolo[2,3-d]pyrimidin-5-yl)carbonyl]pyridin-3-yl}-2-(4-methyl-1H-1,2,3-triazol-1-yl)acetamide]: the IC50 turned out to be 324 nM. In the case of `Cc1[nH]nc(-c2ccccc2)c1CC(=O)Nc1cncc(C(=O)c2cn(C(C)C)c3ncncc23)c1` [Example 163, N-{5-[(7-isopropyl-7H-pyrrolo[2,3-d]pyrimidin-5-yl)carbonyl]pyridin-3-yl}-2-(5-methyl-3-phenyl-1H-pyrazol-4-yl)acetamide], the IC50 worked out at 1840 nM. With `CSc1ncc(CC(=O)Nc2cncc(C(=O)c3cn(C(C)C)c4ncncc34)c2)cn1` [Example 164, N-{5-[(7-isopropyl-7H-pyrrolo[2,3-d]pyrimidin-5-yl)carbonyl]pyridin-3-yl}-2-[2-(methylthio)pyrimidin-5-yl]acetamide], the IC50 is 133 nM. Regarding `CC(C)n1cc(C(=O)c2cncc(NC(=O)Cc3ncccn3)c2)c2cncnc21` [Example 165, N-{5-[(7-isopropyl-7H-pyrrolo[2,3-d]pyrimidin-5-yl)carbonyl]pyridin-3-yl}-2-pyrimidin-2-ylacetamide], the 50% inhibitory concentration (IC50) is 3400 nM.

Consider `Cn1cc(C(=O)c2cncc(NC(=O)Cc3cc(F)ccc3C(F)(F)F)c2)c2cncnc21` [Example 167, 2-[5-Fluoro-2-(trifluoromethyl)phenyl]-N-{5-[(7-methyl-7H-pyrrolo[2,3-d]pyrimidin-5-yl)carbonyl]pyridin-3-yl}acetamide], for which the half-inhibitory concentration (IC50) came to 3470 nM. For `Cc1cccc(CC(=O)Nc2cncc(C(=O)c3cn(C)c4ncncc34)c2)c1` [Example 168, 2-(3-methylphenyl)-N-{5-[(7-methyl-7H-pyrrolo[2,3-d]pyrimidin-5-yl)carbonyl]pyridin-3-yl}acetamide], the half-maximal inhibitory concentration (IC50) turned out to be 702 nM. In the case of `Cn1cc(C(=O)c2cncc(NC(=O)Cc3ccccc3C(F)(F)F)c2)c2cncnc21` [Example 169, N-{5-[(7-methyl-7H-pyrrolo[2,3-d]pyrimidin-5-yl)carbonyl]pyridin-3-yl}-2-[2-(trifluoromethyl)phenyl]acetamide], the IC50 was 3100 nM. In the case of `Cn1cc(C(=O)c2cncc(NC(=O)Cc3cc(F)cc(F)c3)c2)c2cncnc21` [Example 170, 2-(3,5-difluorophenyl)-N-{5-[(7-methyl-7H-pyrrolo[2,3-d]pyrimidin-5-yl)carbonyl]pyridin-3-yl}acetamide], the concentration for half-maximal inhibition (IC50) came out at 3100 nM. Regarding `Cn1cc(C(=O)c2cncc(NC(=O)Cc3c(F)cc(F)cc3F)c2)c2cncnc21` [Example 171, N-{5-[(7-methyl-7H-pyrrolo[2,3-d]pyrimidin-5-yl)carbonyl]pyridin-3-yl}-2-(2,4,6-trifluorophenyl)acetamide], the IC50 is 1280 nM. Consider `Cn1cc(C(=O)c2cncc(NC(=O)Cc3c(F)ccc(F)c3F)c2)c2cncnc21` [Example 172, N-{5-[(7-methyl-7H-pyrrolo[2,3-d]pyrimidin-5-yl)carbonyl]pyridin-3-yl}-2-(2,3,6-trifluorophenyl)acetamide], for which the 50% inhibitory concentration (IC50) worked out at 3840 nM.

As to `Cn1cc(C(=O)c2cncc(NC(=O)Cc3ccc(S(C)(=O)=O)cc3)c2)c2cncnc21` [Example 173, N-{5-[(7-methyl-7H-pyrrolo[2,3-d]pyrimidin-5-yl)carbonyl]pyridin-3-yl}-2-[4-(methylsulfonyl)phenyl]acetamide], the half-maximal inhibitory concentration (IC50) came to 9810 nM. As to `Cn1cc(C(=O)c2cncc(NC(=O)Cc3ccc(C(F)(F)F)c(F)c3)c2)c2cncnc21` [Example 174, 2-[3-fluoro-4-(trifluoromethyl)phenyl]-N-{5-[(7-methyl-7H-pyrrolo[2,3-d]pyrimidin-5-yl)carbonyl]pyridin-3-yl}acetamide], the half-maximal inhibitory concentration (IC50) was determined as 210 nM.

With `COc1cccc(CC(=O)Nc2cncc(C(=O)c3cn(C)c4ncncc34)c2)c1` [Example 175, 2-(3-methoxyphenyl)-N-{5-[(7-methyl-7H-pyrrolo[2,3-d]pyrimidin-5-yl)carbonyl]pyridin-3-yl}acetamide], the 50% inhibitory concentration (IC50) was determined as 2590 nM. As for `Cn1cc(C(=O)c2cncc(NC(=O)Cc3cccc(OC(F)(F)F)c3)c2)c2cncnc21` [Example 176, N-{5-[(7-methyl-7H-pyrrolo[2,3-d]pyrimidin-5-yl)carbonyl]pyridin-3-yl}-2-[3-(trifluoromethoxy)phenyl]acetamide], the IC50 turned out to be 165 nM. Regarding `Cn1cc(C(=O)c2cncc(NC(=O)Cc3cc(F)cc(F)c3F)c2)c2cncnc21` [Example 177, N-{5-[(7-methyl-7H-pyrrolo[2,3-d]pyrimidin-5-yl)carbonyl]pyridin-3-yl}-2-(2,3,5-trifluorophenyl)acetamide], the half-inhibitory concentration (IC50) came to 3100 nM. For the molecule `Cc1ccc2ccc(CC(=O)Nc3cncc(C(=O)c4cn(C)c5ncncc45)c3)cc2n1` [Example 178, N-{5-[(7-methyl-7H-pyrrolo[2,3-d]pyrimidin-5-yl)carbonyl]pyridin-3-yl}-2-(2-methylquinolin-7-yl)acetamide], the IC50 worked out at 3100 nM. For `Cn1cc(C(=O)c2cncc(NC(=O)Cc3ccccc3)c2)c2cncnc21` [Example 179, N-{5-[(7-methyl-7H-pyrrolo[2,3-d]pyrimidin-5-yl)carbonyl]pyridin-3-yl}-2-phenylacetamide] the value was 3080 nM; for `Cn1cc(C(=O)c2cncc(NC(=O)Cc3c(F)cccc3Cl)c2)c2cncnc21` [Example 180, 2-(2-chloro-6-fluorophenyl)-N-{5-[(7-methyl-7H-pyrrolo[2,3-d]pyrimidin-5-yl)carbonyl]pyridin-3-yl}acetamide], 3100 nM; for `COc1ccc(CC(=O)Nc2cncc(C(=O)c3cn(C)c4ncncc34)c2)cc1` [Example 181, 2-(4-methoxyphenyl)-N-{5-[(7-methyl-7H-pyrrolo[2,3-d]pyrimidin-5-yl)carbonyl]pyridin-3-yl}acetamide], 3100 nM. Turning to `Cn1cc(C(=O)c2cncc(NC(=O)Cc3ccc(SC(F)(F)F)cc3)c2)c2cncnc21` [Example 182, N-{5-[(7-methyl-7H-pyrrolo[2,3-d]pyrimidin-5-yl)carbonyl]pyridin-3-yl}-2-{4-[(trifluoromethyl)thio]phenyl}acetamide], the half-maximal inhibitory concentration (IC50) came to 543 nM. As for `Cn1cc(C(=O)c2cncc(NC(=O)Cc3ccc(-c4ccccc4)cc3)c2)c2cncnc21` [Example 183, 2-biphenyl-4-yl-N-{5-[(7-methyl-7H-pyrrolo[2,3-d]pyrimidin-5-yl)carbonyl]pyridin-3-yl}acetamide], the half-inhibitory concentration (IC50) was determined as 1850 nM. For the molecule `Cn1cc(C(=O)c2cncc(NC(=O)Cc3cc(F)c(F)cc3F)c2)c2cncnc21` [Example 184, N-{5-[(7-methyl-7H-pyrrolo[2,3-d]pyrimidin-5-yl)carbonyl]pyridin-3-yl}-2-(2,4,5-trifluorophenyl)acetamide], the half-inhibitory concentration (IC50) amounted to 579 nM. As to `Cn1cc(C(=O)c2cncc(NC(=O)Cc3cccc(SC(F)(F)F)c3)c2)c2cncnc21` [Example 185, N-{5-[(7-methyl-7H-pyrrolo[2,3-d]pyrimidin-5-yl)carbonyl]pyridin-3-yl}-2-{3-[(trifluoromethyl)thio]phenyl}acetamide], the 50% inhibitory concentration (IC50) turned out to be 67.4 nM. As to `Cc1ccc(CC(=O)Nc2cncc(C(=O)c3cn(C)c4ncncc34)c2)cc1` [Example 186, 2-(4-methylphenyl)-N-{5-[(7-methyl-7H-pyrrolo[2,3-d]pyrimidin-5-yl)carbonyl]pyridin-3-yl}acetamide], the concentration for half-maximal inhibition (IC50) stood at 719 nM. As for `Cn1cc(C(=O)c2cncc(NC(=O)Cc3cc(F)c(F)c(F)c3)c2)c2cncnc21` [Example 187, N-{5-[(7-methyl-7H-pyrrolo[2,3-d]pyrimidin-5-yl)carbonyl]pyridin-3-yl}-2-(3,4,5-trifluorophenyl)acetamide], the IC50 is 2630 nM. With `Cc1ccc(CC(=O)Nc2cncc(C(=O)c3cn(C)c4ncncc34)c2)c(C)c1` [Example 188, 2-(2,4-dimethylphenyl)-N-{5-[(7-methyl-7H-pyrrolo[2,3-d]pyrimidin-5-yl)carbonyl]pyridin-3-yl}acetamide], the half-inhibitory concentration (IC50) was found to be 277 nM.

Source of the values: patent US8846698B2, “Pyrrolo[2,3-d]pyrimidine tropomysin-related kinase inhibitors” (Pfizer Limited, priority 2011, dated 2014).
